From patent US20080140036A1, “Antimicrobial Composition” (priority 2004, published 2008)

What was measured:
[1] = test system: EMRSA m97 271 088 phage group 6; assay: ZOI of triclosan vapours (vapour phase)
[2] = test system: EMRSA g96 139 515 phage group 15; assay: ZOI of triclosan vapours (vapour phase)
[3] = test system: EMRSA m972 710 40 phage group 9; assay: ZOI of triclosan vapours (vapour phase)
[4] = test system: MRSA 16; assay: ZOI of triclosan vapours (vapour phase)
[5] = test system: EMRSA m97 271 031 phage group 1; assay: ZOI of triclosan vapours (vapour phase)
[6] = test system: EMRSA m97 271 036 phage group 11; assay: ZOI of triclosan vapours (vapour phase)
[7] = test system: all strains of staphylococci; assay: MIC of triclosan (direct contact), all strains; assay type: cell-based
[8] = test system: EMRSA m97271052 phage group 4; assay: ZOI of triclosan vapours (vapour phase)
[9] = test system: MRSA 17; assay: ZOI of triclosan vapours (vapour phase)
[10] = test system: EMRSA g96 138 744 phage group 16; assay: ZOI of triclosan vapours (vapour phase)
[11] = test system: MRSA 12; assay: ZOI of triclosan vapours (vapour phase)
[12] = test system: MSSA (48); assay: ZOI of triclosan vapours (vapour phase); assay type: cell-based, S. aureus
[13] = test system: MRSA 11; assay: ZOI of triclosan vapours (vapour phase)
[14] = test system: EMRSA m97 271 032 phage group 10; assay: ZOI of triclosan vapours (vapour phase)
[15] = test system: EMRSA j95 922 phage group 3; assay: ZOI of triclosan vapours (vapour phase)
[16] = test system: MRSA 13; assay: ZOI of triclosan vapours (vapour phase)
[17] = test system: Strain T4 MSSA; assay: ZOI of triclosan vapours (vapour phase); assay type: cell-based, S. aureus
[18] = test system: Strain T1 MSSA; assay: ZOI of triclosan vapours (vapour phase); assay type: cell-based, S. aureus
[19] = test system: S. haemolyticus NCTC 11042; assay: ZOI of triclosan vapours (vapour phase); assay type: cell-based
[20] = test system: MRSA 14; assay: ZOI of triclosan vapours (vapour phase)
[21] = test system: S. saprophyticus NCIMB 8711; assay: MIC of triclosan (direct contact); assay type: cell-based
[22] = test system: EMRSA m97 271 042 phage group 12; assay: ZOI of triclosan vapours (vapour phase)
[23] = test system: Oxford S. aureus NCTC 6571; assay: ZOI of triclosan vapours (vapour phase); assay type: cell-based
[24] = test system: MSSA (47); assay: ZOI of triclosan vapours (vapour phase); assay type: cell-based, S. aureus
[25] = test system: S. saprophyticus NCIMB 8711; assay: ZOI of triclosan vapours (vapour phase); assay type: cell-based
[26] = test system: EMRSA m97 271 038 phage group 2; assay: ZOI of triclosan vapours (vapour phase)
[27] = test system: EMRSA g96 136 210 phage group 17; assay: ZOI of triclosan vapours (vapour phase)
[28] = test system: Strain T1 MSSA; assay: MIC of triclosan (direct contact); assay type: cell-based, S. aureus
[29] = test system: EMRSA m97 271 064 phage group 14; assay: ZOI of triclosan vapours (vapour phase)

In the case of `Oc1cc(Cl)ccc1Oc1ccc(Cl)cc1Cl` [triclosan], the “ZOI Average” value ([1]; average) was 52 mm, the “ZOI 1” value ([1]; replicate 1) was 52 mm and the “ZOI 2” value ([1]; replicate 2) was 52 mm. For the same compound, the “ZOI Average” value ([2]; average) was 47 mm, the “ZOI 1” value ([2]; replicate 1) was 47 mm and the “ZOI 2” value ([2]; replicate 2) was 47 mm. For the same compound, the “ZOI Average” value ([3]; average) was 55 mm, the “ZOI 1” value ([3]; replicate 1) was 55 mm and the “ZOI 2” value ([3]; replicate 2) was 55 mm. For the same compound, the “ZOI Average” value ([4]; average) was 55.5 mm, the “ZOI 1” value ([4]; replicate 1) was 55 mm and the “ZOI 2” value ([4]; replicate 2) was 56 mm. For the same compound, the “ZOI Average” value ([5]; average) was 41 mm, the “ZOI 1” value ([5]; replicate 1) was 42 mm and the “ZOI 2” value ([5]; replicate 2) was 40 mm. For the same compound, the “ZOI Average” value ([6]; average) was 52 mm, the “ZOI 1” value ([6]; replicate 1) was 52 mm and the “ZOI 2” value ([6]; replicate 2) was 52 mm. For the same compound, the “concentration able to inhibit all strains of staphylococci” value [7] was 2 µg/mL, the “ZOI Average” value ([8]; average) was 50 mm and the “ZOI 1” value ([8]; replicate 1) was 50 mm. For the same compound, the “ZOI 2” value ([8]; replicate 2) was 50 mm, the “ZOI Average” value ([9]; average) was 32 mm and the “ZOI 1” value ([9]; replicate 1) was 31 mm. For the same compound, the “ZOI 2” value ([9]; replicate 2) was 33 mm, the “ZOI Average” value ([10]; average) was 50 mm and the “ZOI 1” value ([10]; replicate 1) was 50 mm. For the same compound, the “ZOI 2” value ([10]; replicate 2) was 50 mm, the “ZOI Average” value ([11]; average) was 44.5 mm and the “ZOI 1” value ([11]; replicate 1) was 45 mm. The “ZOI 2” value ([11]; replicate 2) was 44 mm, the “ZOI Average” value ([12]; average) was 48.5 mm and the “ZOI 1” value ([12]; replicate 1) was 49 mm. The “ZOI 2” value ([12]; replicate 2) was 48 mm, the “ZOI Average” value ([13]; average) was 43 mm and the “ZOI 1” value ([13]; replicate 1) was 43 mm. For the same compound, the “ZOI 2” value ([13]; replicate 2) was 43 mm, the “ZOI Average” value ([14]; average) was 49 mm and the “ZOI 1” value ([14]; replicate 1) was 49 mm. For the same compound, the “ZOI 2” value ([14]; replicate 2) was 49 mm, the “ZOI Average” value ([15]; average) was 54 mm and the “ZOI 1” value ([15]; replicate 1) was 55 mm. For the same compound, the “ZOI 2” value ([15]; replicate 2) was 53 mm, the “ZOI Average” value ([16]; average) was 47 mm and the “ZOI 1” value ([16]; replicate 1) was 47 mm. The “ZOI 2” value ([16]; replicate 2) was 47 mm, the “ZOI Average” value ([17]; average) was 51 mm and the “ZOI 1” value ([17]; replicate 1) was 50 mm. The “ZOI 2” value ([17]; replicate 2) was 52 mm, the “ZOI Average” value ([18]; average) was 45.5 mm and the “ZOI 1” value ([18]; replicate 1) was 46 mm. The “ZOI 2” value ([18]; replicate 2) was 45 mm, the “ZOI Average” value ([19]; average) was 46 mm and the “ZOI 1” value ([19]; replicate 1) was 48 mm. The “ZOI 2” value ([19]; replicate 2) was 44 mm, the “ZOI Average” value ([20]; average) was 55 mm and the “ZOI 1” value ([20]; replicate 1) was 55 mm. For the same compound, the “ZOI 2” value ([20]; replicate 2) was 55 mm, the MIC [21] was 2 Mg ml^−1− and the “ZOI Average” value ([22]; average) was 45 mm. The “ZOI 1” value ([22]; replicate 1) was 45 mm, the “ZOI 2” value ([22]; replicate 2) was 45 mm and the “ZOI Average” value ([23]; average) was 51 mm. For the same compound, the “ZOI 1” value ([23]; replicate 1) was 50 mm, the “ZOI 2” value ([23]; replicate 2) was 52 mm and the “ZOI Average” value ([24]; average) was 51.5 mm. For the same compound, the “ZOI 1” value ([24]; replicate 1) was 52 mm, the “ZOI 2” value ([24]; replicate 2) was 51 mm and the “ZOI Average” value ([25]; average) was 37.5 mm. For the same compound, the “ZOI 1” value ([25]; replicate 1) was 33 mm, the “ZOI 2” value ([25]; replicate 2) was 42 mm and the “ZOI Average” value ([26]; average) was 57 mm. The “ZOI 1” value ([26]; replicate 1) was 57 mm, the “ZOI 2” value ([26]; replicate 2) was 57 mm and the “ZOI Average” value ([27]; average) was 47 mm. For the same compound, the “ZOI 1” value ([27]; replicate 1) was 47 mm, the “ZOI 2” value ([27]; replicate 2) was 47 mm and the MIC [28] was 0.5 Mg ml^−1−. For the same compound, the “ZOI Average” value ([29]; average) was 35 mm, the “ZOI 1” value ([29]; replicate 1) was 35 mm and the “ZOI 2” value ([29]; replicate 2) was 35 mm.
